The results in this text go back to patent US20220380374A1, “1,4-DIHYDROBENZO[D]PYRAZOLO[3,4-F][1,3]DIAZEPINE DERIVATIVES AND RELATED COMPOUNDS AS LRRK2, NUAK1 AND/OR TYK2 KINASE MODULATORS FOR THE TREATMENT OF E.G. AUTOIMMUNE DISEASE” (Origenis GMBH, priority 2019, published 2022).

The target of experiment [1] is T1, wt human NUAK1, full length (Homo sapiens, UniProt O60285).
T1 construct: 8 nM wt human NUAK1, full length (ThermoFisher/USA); purchased ThermoFisher/USA
T1 sequence (O60285 1-661): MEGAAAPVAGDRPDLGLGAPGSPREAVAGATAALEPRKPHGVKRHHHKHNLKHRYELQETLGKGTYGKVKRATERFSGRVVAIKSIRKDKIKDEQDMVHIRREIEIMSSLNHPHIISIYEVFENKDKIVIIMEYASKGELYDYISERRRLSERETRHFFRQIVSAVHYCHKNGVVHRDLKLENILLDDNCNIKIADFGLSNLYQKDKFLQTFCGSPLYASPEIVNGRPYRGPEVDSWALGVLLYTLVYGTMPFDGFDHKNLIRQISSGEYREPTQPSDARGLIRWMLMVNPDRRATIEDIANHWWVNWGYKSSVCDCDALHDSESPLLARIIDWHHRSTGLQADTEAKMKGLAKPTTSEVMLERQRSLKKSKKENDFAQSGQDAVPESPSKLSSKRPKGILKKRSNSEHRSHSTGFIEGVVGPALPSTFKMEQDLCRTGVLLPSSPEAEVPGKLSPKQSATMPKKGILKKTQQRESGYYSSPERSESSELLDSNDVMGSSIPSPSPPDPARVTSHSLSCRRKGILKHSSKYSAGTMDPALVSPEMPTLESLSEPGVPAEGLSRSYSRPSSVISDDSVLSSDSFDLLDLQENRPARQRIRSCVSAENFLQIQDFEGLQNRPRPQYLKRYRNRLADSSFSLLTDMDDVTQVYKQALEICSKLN
The experiment can be described thus: TR-FRET LanthaScreen Eu Kinase Binding Assay, NUAK1. The conditions noted are these: 5 nM Kinase Tracer 236; read-out: IC50, inhibitory activity toward NUAK1. The procedure: The basic protocol for TR-FRET LanthaScreen Eu Kinase Binding Assay inhibitor studies were performed as follows. LanthaScreen Kinase Binding Assays (ThermoFisher/USA) to evaluate inhibitors were performed by addition of 5 μl of test compound in corresponding DMSO dilutions/5 μl of kinase/antibody mixture, 5 μl of tracer into 384 well small volume plates. After incubation for 1 hour at room temperature, plates were read. Data analysis of emission ratios was according to LanthaScreen Eu Kinase Binding Assay protocol.
Kinase and assay components were adjusted to final concentrations according to the kit protocol. For LRRK2: 5 nM wt human LRRK2, catalytic site, or G2019S human LRRK2, catalytic site (ThermoFisher/USA), 2 nM Eu-Anti-GST Antibody, 10 nM Kinase Tracer 236 in 1× Kinase Buffer A. For NUAK1: 8 nM wt human NUAK1, full length (ThermoFisher/USA), 2 nM Eu-Anti-His Antibody, 5 nM Kinase Tracer 236 in 1× Kinase Buffer A.
(In general: In TR-FRET formats the signal depends on donor and acceptor labels being close together.)

In experiment [2] the target is T2, wt human TYK2, catalytic site (Homo sapiens, UniProt P29597).
T2 construct: 2 nM wt human TYK2, catalytic site (SignalChem/CAN); purchased SignalChem/CAN
T2 sequence (P29597 897-1176 limits assumed): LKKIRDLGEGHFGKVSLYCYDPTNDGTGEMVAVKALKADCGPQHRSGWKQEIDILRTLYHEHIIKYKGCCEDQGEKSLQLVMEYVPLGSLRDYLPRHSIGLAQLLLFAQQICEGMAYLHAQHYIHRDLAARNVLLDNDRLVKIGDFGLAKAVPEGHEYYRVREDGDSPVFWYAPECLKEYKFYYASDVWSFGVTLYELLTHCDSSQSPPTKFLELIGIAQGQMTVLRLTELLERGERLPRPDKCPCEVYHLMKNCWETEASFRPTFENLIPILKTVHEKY
The experiment can be described thus: HTRF KinEASE assay, TYK2. Type of experiment: biochemical. The conditions noted are these: 1 μM ATP; read-out: IC50, inhibitory activity toward TYK2. The procedure:
Basic protocol for HTRF KinEASE assay (Cisbio/FRA) inhibitor studies involved two steps: Enzymatic step: Addition of 4 μl of test compound in corresponding DMSO dilutions, 4 μl of kinase/substrate mixture, 2 μl of ATP into 384 well small volume plates. Incubation for at least 30 minutes at room temperature.
Detection step: Addition of 5 μl antibody and 5 μl streptavidin-XL665, read plate after 60 minutes. Data analysis of emission ratios according to KinEASE assay protocol.
Kinase and assay components were adjusted to final concentrations according to the kit protocol. For TYK2: 2 nM wt human TYK2, catalytic site (SignalChem/CAN), 1 μM HTRF KinEASE-TK Substrate-biotin, 1 μM ATP in 1× Kinase Buffer

By IC50 is commonly meant the concentration that gives 50% inhibition.

As for `Fc1cccc(F)c1C1=Nc2cn[nH]c2-c2ccccc2N1` [Compound 8, 5-(2,6-difluorophenyl)-1,6-dihydrobenzo[d]pyrazolo[3,4-f][1,3]diazepine], the results for the IC50 in experiment [1] and in experiment [2] were 100 to 1000 nM and 10 to 100 nM, respectively.

For the molecule `Fc1cccc(F)c1C1=Nc2ncccc2-c2[nH]ncc2N1` [Compound 11, 5-(2,6-difluorophenyl)-1,4-dihydropyrazolo[4,3-d]pyrido[3,2-f][1,3]diazepine], the IC50 in experiment [1] is 10 to 100 nM; in experiment [2], 100 to 1000 nM.

Take `Fc1ccc(Cl)c(F)c1C1=Nc2ccccc2-c2[nH]ncc2N1` [Compound 18, 5-(3-chloro-2,6-difluorophenyl)-1,4-dihydrobenzo[d]pyrazolo[3,4-f][1,3]diazepine]: the IC50 in experiment [1] and in experiment [2] was 100 to 1000 nM throughout.

Consider `Fc1cccc(F)c1C1=Nc2ccc(Cl)cc2-c2[nH]ncc2N1` [Compound 25, 9-chloro-5-(2,6-difluorophenyl)-1,4-dihydrobenzo[d]pyrazolo[3,4-f][1,3]diazepine], for which the IC50 in experiment [1] is 10 to 100 nM; in experiment [2], 100 to 1000 nM.

As for `Fc1cccc(Cl)c1C1=Nc2ccccc2-c2[nH]ncc2N1` [Compound 27, 5-(2-chloro-6-fluorophenyl)-1,4-dihydrobenzo[d]pyrazolo[3,4-f][1,3]diazepine], the IC50 in experiment [1] and in experiment [2] was 10 to 100 nM in each case.

On to `Fc1cccc(Cl)c1C1=Nc2ncccc2-c2[nH]ncc2N1` [Compound 30, 5-(2-chloro-6-fluorophenyl)-1,4-dihydropyrazolo[4,3-d]pyrido[3,2-f][1,3]diazepine], for which, in experiment [2], the IC50 lay in the range of 10 to 100 nM.

Take `Fc1ccc(F)c(C2=Nc3ccccc3-c3[nH]ncc3N2)c1F` [Compound 32, 5-(2,3,6-trifluorophenyl)-1,4-dihydrobenzo[d]pyrazolo[3,4-f][1,3]diazepine]: the IC50 in experiment [1] and in experiment [2] was 100 to 1000 nM in each case.

In the case of `Fc1ccc2c(c1)-c1[nH]ncc1N=C(c1c(F)cccc1F)N2` [Compound 33, 5-(2,6-difluorophenyl)-9-fluoro-1,6-dihydrobenzo[d]pyrazolo[3,4-f][1,3]diazepine], the IC50 in experiment [1] and in experiment [2] was 10 to 100 nM each time.

`Fc1ccc2c(c1)-c1[nH]ncc1N=C(c1c(F)cccc1Cl)N2` [Compound 34, 5-(2-chloro-6-fluorophenyl)-9-fluoro-1,6-dihydrobenzo[d]pyrazolo[3,4-f][1,3]diazepine]: the IC50 in experiment [1] and in experiment [2] was 10 to 100 nM in each case.

Turning to `O=C(c1ccc2c(c1)N=C(c1c(F)cccc1F)Nc1cn[nH]c1-2)N1CCOCC1` [Compound 56, (5-(2,6-difluorophenyl)-1,4-dihydrobenzo[d]pyrazolo[3,4-f][1,3]diazepin-8-yl)(morpholino)methanone], in experiment [2], the IC50 was 100 to 1000 nM.

Consider `Fc1cccc(F)c1C1=Nc2cn[nH]c2-c2cn(C3CCOCC3)nc2N1` [Compound 60, 5-(2,6-difluorophenyl)-8-(tetrahydro-2H-pyran-4-yl)-6,8-dihydro-1H-dipyrazolo[3,4-d:3′,4′-f][1,3]diazepine], for which the IC50 in experiment [2] is 100 to 1000 nM.

As for `Fc1cccc(F)c1C1=Nc2cn[nH]c2-c2[nH]ncc2N1` [Compound 66, 5-(2,6-difluorophenyl)-4,9-dihydro-1H-dipyrazolo[4,3-d:3′,4′-f][1,3]diazepine], the IC50 in experiment [2] is 10 to 100 nM.

For the molecule `O=C(c1ccc2c(c1)N=C(c1c(Cl)cccc1Cl)Nc1cn[nH]c1-2)N1CCOCC1` [Compound 79, (5-(2,6-dichlorophenyl)-1,4-dihydrobenzo[d]pyrazolo[3,4-f][1,3]diazepin-8-yl)(morpholino)methanone], the IC50 in experiment [2] lay in the range of 100 to 1000 nM.

As for `NC(=O)c1ccc2c(c1)N=C(c1c(F)cccc1F)Nc1cn[nH]c1-2` [Compound 81, 5-(2,6-difluorophenyl)-1,4-dihydrobenzo[d]pyrazolo[3,4-f][1,3]diazepine-8-carboxamide], in experiment [2], the IC50 is less than 10 nM.

`O=[N+]([O-])c1cccc(F)c1C1=Nc2cn[nH]c2-c2ccccc2N1` [Compound 106, 5-(2-fluoro-6-nitrophenyl)-1,6-dihydrobenzo[d]pyrazolo[3,4-f][1,3]diazepine]: the IC50 in experiment [2] fell in the range of 100 to 1000 nM.

`O=[N+]([O-])c1ccc(F)c(C2=Nc3cn[nH]c3-c3ccccc3N2)c1F` [Compound 107, 5-(2,6-difluoro-3-nitrophenyl)-1,6-dihydrobenzo[d]pyrazolo[3,4-f][1,3]diazepine]: the IC50 in experiment [2] lay in the range of 100 to 1000 nM.

As for `O=[N+]([O-])c1cccc(F)c1C1=Nc2cn[nH]c2-c2cccnc2N1` [Compound 108, 5-(2-fluoro-6-nitrophenyl)-1,6-dihydropyrazolo[4,3-d]pyrido[3,2-f][1,3]diazepine], the IC50 in experiment [2] lay within 100 to 1000 nM.

In the case of `Fc1cccc(I)c1C1=Nc2ccccc2-c2[nH]ncc2N1` [Compound 111, 5-(2-fluoro-6-iodophenyl)-1,4-dihydrobenzo[d]pyrazolo[3,4-f][1,3]diazepine], the IC50 in experiment [2] fell in the range of 100 to 1000 nM.

With `COc1cccc(F)c1C1=Nc2cn[nH]c2-c2cccnc2N1` [Compound 119], in experiment [2], the IC50 fell in the range of 100 to 1000 nM.

Take `Fc1ccc2c(c1F)N=C(c1c(F)cccc1F)Nc1cn[nH]c1-2` [Compound 170, 5-(2,6-difluorophenyl)-7,8-difluoro-1,4-dihydrobenzo[d]pyrazolo[3,4-f][1,3]diazepine]: the IC50 in experiment [2] is 100 to 1000 nM.

With `O=C(NC1CCOCC1)c1cc2c(cc1Cl)-c1n[nH]cc1N=C(c1c(F)cccc1F)N2` [Compound 199, 9-chloro-5-(2,6-difluorophenyl)-N-(tetrahydro-2H-pyran-4-yl)-2,6-dihydrobenzo[d]pyrazolo[3,4-f][1,3]diazepine-8-carboxamide], in experiment [2], the IC50 was in the range of 100 to 1000 nM.

Take `Fc1cccc(F)c1C1=Nc2ccc(CCCl)cc2-c2n[nH]cc2N1` [Compound 209, 9-(2-chloroethyl)-5-(2,6-difluorophenyl)-2,4-dihydrobenzo[d]pyrazolo[3,4-f][1,3]diazepine]: in experiment [1], the IC50 was in the range of 10 to 100 nM.

As for `Cc1ccc2c(c1)-c1n[nH]c(C)c1NC(c1c(F)cccc1F)=N2` [Compound 212, 5-(2,6-difluorophenyl)-3,9-dimethyl-2,4-dihydrobenzo[d]pyrazolo[3,4-f][1,3]diazepine], the IC50 in experiment [1] was in the range of 100 to 1000 nM.

Take `Fc1cc2c(cc1OC1CCOCC1)N=C(c1c(Cl)cccc1C(F)(F)F)Nc1c[nH]nc1-2` [Compound 224, 5-(2-chloro-6-(trifluoromethyl)phenyl)-9-fluoro-8-((tetrahydro-2H-pyran-4-yl)oxy)-2,4-dihydrobenzo[d]pyrazolo[3,4-f][1,3]diazepine]: the IC50 in experiment [2] lay within 10 to 100 nM.

As to `CCC(CC)Oc1cc2c(cc1F)-c1n[nH]cc1N=C(c1c(F)cccc1Cl)N2` [Compound 232, 5-(2-chloro-6-fluorophenyl)-9-fluoro-8-(pentan-3-yloxy)-2,6-dihydrobenzo[d]pyrazolo[3,4-f][1,3]diazepine], in experiment [2], the IC50 was 10 to 100 nM.

Regarding `Fc1cc2c(cc1Oc1ccccc1)N=C(c1c(F)cccc1Cl)Nc1c[nH]nc1-2` [Compound 244, 5-(2-chloro-6-fluorophenyl)-9-fluoro-8-phenoxy-2,4-dihydrobenzo[d]pyrazolo[3,4-f][1,3]diazepine], the IC50 in experiment [2] was 100 to 1000 nM.

As to `CC[C@@H](C)Oc1cc2c(cc1F)-c1n[nH]cc1N=C(c1c(F)cccc1Cl)N2` [Compound 248, (R)-8-(sec-butoxy)-5-(2-chloro-6-fluorophenyl)-9-fluoro-2,6-dihydrobenzo[d]pyrazolo[3,4-f][1,3]diazepine], the IC50 in experiment [2] was 10 to 100 nM.
